Test results from patent publication EP0325131A2, “Pyrimidine derivatives as performance stimulating agents” (BAYER AG, priority 1988, dated 1989).

Test system: Weibliche Laborratten
Assay: Rat feeding trial (relative weight gain versus untreated control)
Type: in vivo, Laborratten vom Typ SPF Wistar
Settings: female SPF Wistar rats 90-110 g, 100 ppm active substance in feed ad lib, 13 days, relative to untreated control
Description: Weibliche Laborratten 90-110 g schwer vom Typ SPF Wistar (Züchtung Hagemann) werden ad lib mit Standard Rattenfutter, das mit der gewünschten Menge Wirkstoff versetzt ist, gefüttert. Jeder Versuchsansatz wird mit Futter der identischen Charge durchgeführt, so daß Unterschiede in der Zusammensetzung des Futters die Vergleichbarkeit der Ergebnisse nicht beeinträchtigen können.
Die Ratten erhalten Wasser ad lib.
Jeweils 12 Ratten bilden eine Versuchsgruppe und werden mit Futter, das mit der gewünschten Menge Wirkstoff versetzt ist, gefüttert. Eine Kontrollgruppe erhält Futter ohne Wirkstoff. Die Versuchsgruppen werden so zusammengestellt, daß das durchschnittliche Körpergewicht sowie die Streuung in den Körpergewichten der Ratten in jeder Versuchsgruppe gleich ist, so daß eine Vergleichbarkeit der Versuchsgruppen untereinander gewährleistet ist.
Die Tiere werden vor Versuchsbeginn 2 Tage an die neuen Haltungsbedingungen adaptiert, während dieser Zeit wird Futter ohne Wirkstoffzusatz gegeben. Danach erhalten die Tiere 13 Tage lang Futter, das Wirkstoff enthält. Es wird die relative Gewichtszunahme im Verhältnis zur unbehandelten Kontrolle bestimmt.

CC(C)(C)NCC(O)c1cnc(N)nc1 (stereo not shown) [compound 1, 1-(2-Amino-5-pyrimidinyl)-2-(tert.-butylamino)-ethanol]
relative Gewichtszunahme: 30%
